Patent publication US9725683B2, “Surfactants and methods of making and using same” (priority 2013, dated 2017)

Tests used:
[1] = Surface Tension Test Method (Kruss K12 tensiometer, Wilhelmy plate); assay type: physicochemical
Description: Surface Tension Test Method
Surface tension was measured using a K12 process tensiometer (available from Kruss GmbH of Hamburg, Germany) using a Wilhemly plate method with a platinum PL01 plate (available from Krüss GmbH). Forty milliliters of the solution to be tested were placed in a 60 mL glass snap cap jar with an inner diameter of approximately 1.5 inches.

[2] = Solubility of neutral fluorinated surfactants in water at 22° C. (capillary GC of saturated solutions); assay type: physicochemical; conditions: pure deionized water
Description: Various neutral fluorinated surfactants were tested to determine their solubility in pure deionized water.

[3] = aqueous TMAH, mole ratio 1.0, equivalent concentrations
[4] = aqueous TMAH, mole ratio 2.0, same concentrations
[5] = aqueous ammonium hydroxide, mole ratio 2.0, same concentrations

SMILES | Surface tension in water compared [1, 3] | Surface tension in water compared [1, 4] | Surface tension in water compared [1, 5] | % Soluble in water at 22 Deg C. [2] | melting point [°C]
O=S(=O)(NCCOCCOCCO)C(F)(F)C(F)(F)C(F)(F)C(F)(F)F [VIII, C4F9SO2NH(CH2CH2OCH2CH2OCH2CH2OH)] | significantly lower surface tensions than H-FBSE | significantly lower surface tension in water than H-FBSE | lowest surface tension in water of all the materials tested |  | 
O=S(=O)(N(CCOCCO)CCOCCO)C(F)(F)C(F)(F)C(F)(F)C(F)(F)F [IV, C4F9SO2N(CH2CH2OCH2CH2OH)2] |  |  |  | 0.101% | 
O=S(=O)(N(CCO)CCO)C(F)(F)C(F)(F)C(F)(F)C(F)(F)F [B, reference compound] |  |  |  | 0.0592% | 
CC(O)CNS(=O)(=O)C(F)(F)C(F)(F)C(F)(F)C(F)(F)F (centres unmarked) [I, C4F9SO2N(H)CH2CH(CH3)OH] |  |  | roughly equivalent surface tensions |  | 80.33
CN(CCOCCO)S(=O)(=O)C(F)(F)C(F)(F)C(F)(F)C(F)(F)F [VI, C4F9SO2N(CH3)(CH2CH2OCH2CH2OH)] |  |  |  | 0.232% | 80.5
O=S(=O)(NCCOCCO)C(F)(F)C(F)(F)C(F)(F)C(F)(F)F [III, C4F9SO2N(H)CH2CH2OCH2CH2OH] | significantly lower surface tensions than H-FBSE | significantly lower surface tension in water than H-FBSE | lower surface tension in water than the H-FBSE |  | 35.7
O=S(=O)(N(CCO)CCOCCO)C(F)(F)C(F)(F)C(F)(F)C(F)(F)F [V, C4F9SO2N(CH2CH2OCH2CH2OH)(CH2CH2OH)] |  |  |  | 100 (miscible)^ % | 45.1
CN(CCO)S(=O)(=O)C(F)(F)C(F)(F)C(F)(F)C(F)(F)F [C, reference compound] |  |  |  | 0.118% | 
O=S(=O)(NCCO)C(F)(F)C(F)(F)C(F)(F)C(F)(F)F [A, reference compound] |  |  | roughly equivalent surface tensions |  | 
